A word on the EC50: it is the midpoint of the concentration-response curve.

Drawing on patent US10214534B2, “Substituted 2-phenyl (AZA)benzofuran compounds for the treatment of hepatitis C” (BRISTOL-MYERS SQUIBB COMPANY, priority 2014, dated 2019), this text covers EC50 for 19 molecules.

This experiment relates to genotype 1b (Con-1) HCV replicon. Kind of experiment: HCV replicon luciferase assay. The note with it: Hepatitis C virus, 72 h, genotype 1b replicon, Huh-7, Renilla luciferase, 3 days. The format is cell-based. On the procedure:
The cell lines used to evaluate compounds consist of a human hepatocyte derived cell line (Huh-7) that constitutively expresses a genotype 1b (Con-1) HCV replicon or a genotype 1b (Con-1) HCV replicon with an asparagine replacing the cysteine at amino acid 316, or a genotype 2a (JFH-1) replicon, containing a Renilla luciferase reporter gene. These cells were maintained in Dulbecco's modified Eagle medium (DMEM) containing 10% FBS, 100 U/mL penicillin/streptomycin and 1.0 mg/mL G418.
To evaluate compound efficacy, titrated compounds were transferred to sterile 384-well tissue culture treated plates, and the plates were seeded with HCV replicon cells (50 μL at a density of 2.4×10^3 cells/well) in DMEM containing 4% FBS (final DMSO concentration at 0.5%). After 3 days incubation at 37° C., cells were analyzed for Renilla Luciferase activity using the EnduRen substrate (Promega cat #E6485) according to the manufacturer's directions. Briefly, the EnduRen substrate was diluted in DMEM and then added to the plates to a final concentration of 7.5 μM. The plates were incubated for at least 1 h at 37° C. then read on a Viewlux Imager (PerkinElmer) using a luminescence program. The 50% effective concentration (EC50) was calculated using the four-parameter logistic formula noted above.

Each structure is given as a SMILES string. Like-named read-outs stand apart in the source and are kept apart here.

As to `CCN(c1cc2oc(-c3ccc(Oc4ccccc4)cc3)c(C(=O)NC)c2cc1-c1cccc(C(=O)NC(C)(C)C)c1)S(C)(=O)=O` [Compound 1001], the EC50 (read-out: EC50 1b (class)) is less than 0.1 µM.

On to `CCN(c1cc2oc(-c3ccc(Oc4ccc(F)cc4)cc3)c(C(=O)NC)c2cc1-c1cccc(C(=O)NC(C)(C)C)c1)S(C)(=O)=O` [Compound 1002], for which the EC50 (read-out: EC50 1b (class)) was less than 0.1 µM.

Consider `CCN(c1cc2oc(-c3ccc(Oc4cccc(F)c4)cc3)c(C(=O)NC)c2cc1-c1cccc(C(=O)NC(C)(C)C)c1)S(C)(=O)=O` [Compound 1003], for which the EC50 (read-out: EC50 1b (class)) was less than 0.1 µM and the EC50 (read-out: EC50 (uM) 1b) came out at 0.0023 µM. Consider `CCN(c1cc2oc(-c3ccc(Oc4ccccc4F)cc3)c(C(=O)NC)c2cc1-c1cccc(C(=O)NC(C)(C)C)c1)S(C)(=O)=O` [Compound 1004], for which the EC50 (read-out: EC50 1b (class)) is less than 0.1 µM. Turning to `CCN(c1cc2oc(-c3ccc(Oc4ccc(OC)cc4)cc3)c(C(=O)NC)c2cc1-c1cccc(C(=O)NC(C)(C)C)c1)S(C)(=O)=O` [Compound 1005], the EC50 is 0.1 to 1 µM (read-out: EC50 1b (class)) and 0.12 µM (read-out: EC50 (uM) 1b).

Turning to `CCN(c1cc2oc(-c3ccc(Oc4cccc(OC)c4)cc3)c(C(=O)NC)c2cc1-c1cccc(C(=O)NC(C)(C)C)c1)S(C)(=O)=O` [Compound 1006], the EC50 (read-out: EC50 1b (class)) is less than 0.1 µM.

`CCN(c1cc2oc(-c3ccc(Oc4ccccc4OC)cc3)c(C(=O)NC)c2cc1-c1cccc(C(=O)NC(C)(C)C)c1)S(C)(=O)=O` [Compound 1007]: the half-maximal effective concentration (EC50) is, setting by setting: (read-out: EC50 1b (class)) less than 0.1 µM; (read-out: EC50 (uM) 1b) 0.024 µM. The like results for `CCN(CC)c1cc2oc(-c3ccc(Oc4cccc(F)c4)cc3)c(C(=O)NC)c2cc1-c1ccc(O)c(C(N)=O)c1` [Compound 1008] were, in that order, less than 0.1 µM and 0.013 µM. As to `CCN(CC)c1cc2oc(-c3ccc(Oc4cccc(F)c4)cc3)c(C(=O)NC)c2cc1-c1ccc(OC)c(C(N)=O)c1` [Compound 1010], for the setting “read-out: EC50 1b (class)”, the concentration giving a half-maximal response (EC50) was in the range of 0.1 to 1 µM.

Consider `CCN(CC)c1cc2oc(-c3ccc(Oc4cccc(F)c4)cc3)c(C(=O)NC)c2cc1-c1cccc(C(=O)NC(C)(C)C(=O)O)c1` [Compound 1012], for which the EC50 runs as follows: (read-out: EC50 1b (class)) more than 1 µM; (read-out: EC50 (uM) 1b) 1.47 µM.

Take `CCNc1cc2oc(-c3ccc(Oc4cccc(F)c4)cc3)c(C(=O)NC)c2cc1-c1cccc(C(=O)NC(C)(C)CC(=O)O)c1` [Compound 1013]: for the setting “read-out: EC50 1b (class)”, the EC50 lay within 0.1 to 1 µM. As to `CCOC(=O)c1c(-c2ccc(Oc3cccc(O)c3)cc2)oc2cc([N+](=O)[O-])c(O)cc12` [Compound 1014], the EC50 was more than 1 µM (read-out: EC50 1b (class)) and 9.94 µM (read-out: EC50 (uM) 1b). Turning to `CCN(c1cc2oc(-c3ccc(Oc4cccc(F)c4)cc3)c(C(=O)NC)c2cc1-c1cccc(C(=O)NC2(C)CC2)c1)S(C)(=O)=O` [Compound 1015], the concentration for a half-maximal effect (EC50) (read-out: EC50 1b (class)) is more than 1 µM. For `CCN(c1cc2oc(-c3ccc(Oc4cccc(Cl)c4)cc3)c(C(=O)NC)c2cc1-c1cccc(C(N)=O)c1)S(C)(=O)=O` [Compound 1016], the EC50 (read-out: EC50 1b (class)) is less than 0.1 µM. Take `CCN(c1cc2oc(-c3ccc(Oc4cccc(F)c4)cc3)c(C(=O)NC)c2cc1-c1cccc(C(=O)N[C@@H](C)C(F)(F)F)c1)S(C)(=O)=O` [Compound 1017]: the EC50 runs as follows: (read-out: EC50 1b (class)) less than 0.1 µM; (read-out: EC50 (uM) 1b) 0.0062 µM.

On to `CCN(c1cc2oc(-c3ccc(Oc4cccc(F)c4)cc3)c(C(=O)NC)c2cc1-c1cccc(C(N)=O)c1)S(C)(=O)=O` [Compound 1018], for which the EC50 (read-out: EC50 1b (class)) is less than 0.1 µM. As for `CCN(c1cc2oc(-c3ccc(Oc4cccc(Cl)c4)cc3)c(C(=O)NC)c2cc1-c1cccc(C(=O)N[C@@H](C)C(F)(F)F)c1)S(C)(=O)=O` [Compound 1019], the half-maximal effective concentration (EC50) (read-out: EC50 1b (class)) was less than 0.1 µM. Still for that read-out and setting: to `CNC(=O)c1c(-c2ccc(Oc3cccc(F)c3)cc2)oc2cc(N(C)S(C)(=O)=O)c(-c3cccc(C(=O)NCC(F)(F)F)c3)cc12` [Compound 1020] belongs less than 0.1 µM; to `[2H]C([2H])([2H])C(NC(=O)c1cc(-c2cc3c(C(=O)NC)c(-c4ccc(Oc5cccc(F)c5)cc4)oc3cc2N(CC)S(C)(=O)=O)ccc1OC)(C([2H])([2H])[2H])C([2H])([2H])[2H]` [Compound 1021], less than 0.1 µM.
